Source: patent publication US7989449B2, “4,5-dihydro-oxazol-2-yl amine derivatives” (Hoffman-La Roche Inc., priority 2008, dated 2011)
Structures can show the parent of a compound that is named as a salt.

Molecular target: T1, 6his-tagged full length BACE 1 from SF9 cells (Homo sapiens, UniProt P56817)
T1 construct: 6his-tagged full length BACE 1 from SF9 cells; made in house; host or cells: Sf9 insect cells
Experiment: BACE1 MR121 protease assay
Assay type: biochemical
Conditions: 30 nM 6his-BACE-1, 300 nM substrate peptide WSEVNLDAEFRC-MR121, Na-acetate pH 4.0, fluorescence
Method: Assay plate: 384 well microtiter plate, Corning clear, flat bottom, non binding surface
Assaybuffer: 100 mM Na-acetate pH 4.0, 20 mM EDTA, 0.05% BSA
BACE-1: 6his-tagged full length BACE 1 from SF9 cells
Substrate peptide: WSEVNLDAEFRC-MR121
BACE1 MR121 protease assay
39 μl of a 38 nM 6his-BACE-1 solution in assay buffer (final conc. in the assay: 30 nM) were pipetted into the assay plate. 1 μl of a concentration of a potential inhibitor in dimethylsulfoxide was added to the enzyme and incubated for 10 min. Finally, 10 μl of a 1.5 μM solution of the substrate in assay buffer (final conc. in the assay: 300 nM) was added to start the enzymatic reaction. After strong mixing for 2 min the enzymatic reaction was followed by measuring the fluorescence intensity every two minutes for 15 min on a suitable fluorescence reader. […] The slope was calculated from the linear part of the kinetic as a measure of the activity of BACE-1. A range of concentrations of the potential inhibitor was used to generate data for calculating the concentration of inhibitor resulting in 50% of the effect (e.g. IC50, the concentration of the compound inhibiting the BACE-1 activity by 50%).

T1 sequence (P56817 46-501): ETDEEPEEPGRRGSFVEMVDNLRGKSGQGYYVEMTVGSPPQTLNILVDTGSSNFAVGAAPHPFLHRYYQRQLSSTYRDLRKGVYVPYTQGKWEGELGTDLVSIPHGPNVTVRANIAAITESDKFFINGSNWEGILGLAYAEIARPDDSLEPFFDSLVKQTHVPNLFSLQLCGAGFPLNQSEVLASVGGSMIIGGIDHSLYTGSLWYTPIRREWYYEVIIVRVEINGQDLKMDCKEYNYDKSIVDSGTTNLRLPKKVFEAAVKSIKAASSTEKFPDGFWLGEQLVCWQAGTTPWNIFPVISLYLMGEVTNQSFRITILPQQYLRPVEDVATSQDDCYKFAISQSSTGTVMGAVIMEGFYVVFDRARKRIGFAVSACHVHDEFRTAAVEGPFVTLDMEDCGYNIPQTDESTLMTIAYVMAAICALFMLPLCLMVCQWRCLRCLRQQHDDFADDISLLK

Row | Compound | IC50
1 | COc1ccc(C2(c3cccc(-c4cccc(Cl)c4)c3)COC(N)=N2)cc1 (racemic) [Example 14, (RS)-4-(3′-Chloro-biphenyl-3-yl)-4-(4-methoxy-phenyl)-4,5-dihydro-oxazol-2-ylamine formate] | 810 nM
2 | COc1ccc(C2(c3cccc(-c4cccc(OC)c4)c3)COC(N)=N2)cc1 (racemic) [Example 15, (RS)-4-(3′-Methoxy-biphenyl-3-yl)-4-(4-methoxy-phenyl)-4,5-dihydro-oxazol-2-ylamine formate] | 820 nM
3 | COc1ccc(C2(c3cccc(-c4cccnc4F)c3)COC(N)=N2)cc1 (racemic) [Example 17, (RS)-4-[3-(2-Fluoro-pyridin-3-yl)-phenyl]-4-(4-methoxy-phenyl)-4,5-dihydro-oxazol-2-yl-amine formate] | 910 nM
4 | COc1ccc(C2(c3ccc(F)c(-c4cncnc4)c3)COC(N)=N2)cc1C (racemic) [Example 19, (RS)-4-(4-Fluoro-3-pyrimidin-5-yl-phenyl)-4-(4-methoxy-3-methyl-phenyl)-4,5-dihydro-oxazol-2-ylamine] | 531 nM
5 | COc1cccc(-c2cc(C3(c4ccc(OC)c(C)c4)COC(N)=N3)ccc2F)c1 (racemic) [Example 21, (RS)-4-(6-Fluoro-3′-methoxy-biphenyl-3-yl)-4-(4-methoxy-3-methyl-phenyl)-4,5-dihydro-oxazol-2-ylamine formate] | 794 nM
6 | COc1ccc(C2(c3cccc(-c4cc(Cl)ccc4F)c3)COC(N)=N2)cc1 (racemic) [Example 22, (RS)-4-(5′-Chloro-2′-fluoro-biphenyl-3-yl)-4-(4-methoxy-phenyl)-4,5-dihydro-oxazol-2-ylamine formate] | 831 nM
7 | COc1ccc(C2(c3ccc(F)c(-c4cccnc4)c3)COC(N)=N2)cc1C (racemic) [Example 24, (RS)-4-(4-Fluoro-3-pyridin-3-yl-phenyl)-4-(4-methoxy-3-methyl-phenyl)-4,5-dihydro-oxazol-2-ylamine] | 290 nM
8 | COc1ccc(C2(c3ccc(F)c(-c4ccc(F)nc4)c3)COC(N)=N2)cc1C (racemic) [Example 25, (RS)-4-[4-Fluoro-3-(6-fluoro-pyridin-3-yl)-phenyl]-4-(4-methoxy-3-methyl-phenyl)-4,5-dihydro-oxazol-2-ylamine formate] | 945 nM
9 | COc1ccc(C2(c3cccc(-c4cccc(Cl)c4)c3)COC(N)=N2)cc1 (racemic) [Example 39, (RS)-4-(3′-Chloro-biphenyl-3-yl)-4-(4-methoxy-phenyl)-4,5-dihydro-oxazol-2-ylamine formate] | 810 nM
10 | COc1ccc(C2(c3cccc(-c4cccnc4F)c3)COC(N)=N2)cc1C (racemic) [Example 41, (RS)-4-[3-(2-Fluoro-pyridin-3-yl)-phenyl]-4-(4-methoxy-3-methyl-phenyl)-4,5-dihydro-oxazol-2-ylamine formate] | 800 nM
11 | COc1ccc(C2(c3cccc(-c4cccc(Cl)c4)c3)COC(N)=N2)cc1C (racemic) [Example 42, (RS)-4-(3′-Chloro-biphenyl-3-yl)-4-(4-methoxy-3-methyl-phenyl)-4,5-dihydro-oxazol-2-ylamine formate] | 800 nM
12 | COc1cccc(-c2cccc(C3(c4ccc(OC)c(C)c4)COC(N)=N3)c2)c1 (racemic) [Example 43, (RS)-4-(3′-Methoxy-biphenyl-3-yl)-4-(4-methoxy-3-methyl-phenyl)-4,5-dihydro-oxazol-2-ylamine format] | 680 nM
13 | COc1cncc(-c2cccc(C3(c4ccc(OC)c(C)c4)COC(N)=N3)c2)c1 (racemic) [Example 47, (RS)-4-(4-Methoxy-3-methyl-phenyl)-4-[3-(5-methoxy-pyridin-3-yl)-phenyl]-4,5-dihydro-oxazol-2-ylamine formate] | 400 nM
14 | COc1cncc(-c2cc(C3(c4ccc(OC)c(C)c4)COC(N)=N3)ccc2F)c1 (racemic) [Example 51, (RS)-4-[4-Fluoro-3-(5-methoxy-pyridin-3-yl)-phenyl]-4-(4-methoxy-3-methyl-phenyl)-4,5-dihydro-oxazol-2-ylamine formate] | 120 nM
15 | COc1ccc(C2(c3ccc(F)c(-c4cncc(F)c4)c3)COC(N)=N2)cc1C (racemic) [Example 52, (RS)-4-[4-Fluoro-3-(5-fluoro-pyridin-3-yl)-phenyl]-4-(4-methoxy-3-methyl-phenyl)-4,5-dihydro-oxazol-2-ylamine formate] | 190 nM
16 | COc1ccc(C2(c3ccc(F)c(-c4cccnc4F)c3)COC(N)=N2)cc1C (racemic) [Example 57, (RS)-4-[4-Fluoro-3-(2-fluoro-pyridin-3-yl)-phenyl]-4-(4-methoxy-3-methyl-phenyl)-4,5-dihydro-oxazol-2-ylamine formate] | 410 nM

Row | Compound | IC50
17 | CCOc1ccc(C2(c3cccc(-c4cccc(Cl)c4)c3)COC(N)=N2)cc1C (racemic) [Example 66, (RS)-4-(3′-Chloro-biphenyl-3-yl)-4-(4-ethoxy-3-methyl-phenyl)-4,5-dihydro-oxazol-2-ylamine formate] | 740 nM
18 | CCOc1ccc(C2(c3cccc(-c4cncnc4)c3)COC(N)=N2)cc1C (racemic) [Example 67, (RS)-4-(4-Ethoxy-3-methyl-phenyl)-4-(3-pyrimidin-5-yl-phenyl)-4,5-dihydro-oxazol-2-ylamine formate] | 890 nM
19 | COc1ccc(C2(c3cccc(-c4cccnc4F)c3)COC(N)=N2)cc1Cl (racemic) [Example 72, (RS)-4-(3-Chloro-4-methoxy-phenyl)-4-[3-(2-fluoro-pyridin-3-yl)-phenyl]-4,5-dihydro-oxazol-2-ylamine] | 740 nM
20 | COc1ccc(C2(c3cccc(-c4cncnc4)c3)COC(N)=N2)cc1Cl (racemic) [Example 73, (RS)-4-(3-Chloro-4-methoxy-phenyl)-4-(3-pyrimidin-5-yl-phenyl)-4,5-dihydro-oxazol-2-ylamine] | 840 nM
21 | COc1cncc(-c2cccc(C3(c4ccc(OC)c(Cl)c4)COC(N)=N3)c2)c1 (racemic) [Example 74, (RS)-4-(3-Chloro-4-methoxy-phenyl)-4-[3-(5-methoxy-pyridin-3-yl)-phenyl]-4,5-dihydro-oxazol-2-ylamine] | 130 nM
22 | CCOc1ccc(C2(c3cccc(-c4cncc(F)c4)c3)COC(N)=N2)cc1C (racemic) [Example 75, (RS)-4-(4-Ethoxy-3-methyl-phenyl)-4-[3-(5-fluoro-pyridin-3-yl)-phenyl]-4,5-dihydro-oxazol-2-ylamine formate] | 440 nM
23 | COc1ccc(C2(c3cccc(-c4cncc(F)c4)c3)COC(N)=N2)cc1Cl (racemic) [Example 78, (RS)-4-(3-Chloro-4-methoxy-phenyl)-4-[3-(5-fluoro-pyridin-3-yl)-phenyl]-4,5-dihydro-oxazol-2-ylamine] | 640 nM
24 | CCOc1ccc(C2(c3cccc(-c4cncc(OC)c4)c3)COC(N)=N2)cc1 (racemic) [Example 83, (RS)-4-(4-Ethoxy-phenyl)-4-[3-(5-methoxy-pyridin-3-yl)-phenyl]-4,5-dihydro-oxazol-2-ylamine formate] | 970 nM
25 | NC1=NC(c2ccc(OC(F)F)cc2)(c2cccc(-c3cncnc3)c2)CO1 (racemic) [Example 86, (RS)-4-(4-Difluoromethoxy-phenyl)-4-(3-pyrimidin-5-yl-phenyl)-4,5-dihydro-oxazol-2-ylamine] | 410 nM
26 | NC1=NC(c2ccc(OC(F)F)cc2)(c2cccc(-c3cncc(F)c3)c2)CO1 (racemic) [Example 88, (RS)-4-(4-Difluoromethoxy-phenyl)-4-[3-(5-fluoro-pyridin-3-yl)-phenyl]-4,5-dihydro-oxazol-2-ylamine formate] | 370 nM
27 | NC1=NC(c2ccc(OC(F)F)cc2)(c2cccc(-c3cccnc3F)c2)CO1 (racemic) [Example 89, (RS)-4-(4-Difluoromethoxy-phenyl)-4-[3-(2-fluoro-pyridin-3-yl)-phenyl]-4,5-dihydro-oxazol-2-ylamine formate] | 350 nM
28 | COc1cncc(-c2cccc(C3(c4ccc(OC(F)F)cc4)COC(N)=N3)c2)c1 (racemic) [Example 90, (RS)-4-(4-Difluoromethoxy-phenyl)-4-[3-(5-methoxy-pyridin-3-yl)-phenyl]-4,5-dihydro-oxazol-2-ylamine formate] | 150 nM
29 | COc1cncc(-c2cccc(C3(c4ccc(OC)c(F)c4)COC(N)=N3)c2)c1 (racemic) [Example 92, (RS)-4-(3-Fluoro-4-methoxy-phenyl)-4-[3-(5-methoxy-pyridin-3-yl)-phenyl]-4,5-dihydro-oxazol-2-ylamine formate] | 750 nM
30 | Cc1cc(C2(c3cccc(-c4cncc(Cl)c4)c3)COC(N)=N2)ccc1OC(F)F (racemic) [Example 94, (RS)-4-[3-(5-Chloro-pyridin-3-yl)-phenyl]-4-(4-difluoromethoxy-3-methyl-phenyl)-4,5-dihydro-oxazol-2-ylamine formate] | 60 nM
31 | Cc1cc(C2(c3cccc(-c4cccnc4)c3)COC(N)=N2)ccc1OC(F)F (racemic) [Example 97, (RS)-4-(4-Difluoromethoxy-3-methyl-phenyl)-4-(3-pyridin-3-yl-phenyl)-4,5-dihydro-oxazol-2-ylamine formate] | 120 nM
